The values below come from patent publication EP0007319A1, “Indan-1-carboxylic acid derivatives,process for their preparation and pharmaceutical preparations containing these compounds” (priority 1978, dated 1980).

In series [1] the test system is Adjuvans-Arthritis. Briefly: Adjuvant arthritis test (antiphlogistic activity). Format: in vivo, Ratten des Stammes Lewis (LEW). Conditions: Rattus norvegicus; dose giving 40 % healing of right hind paw; M. butyricum adjuvant; oral, daily over 4 days from day 11; Lewis rats; read-out: Adjuvans-Arthritis Test in mg/kg Tier (ED40). The source says: Die antiphlogistische Wirksamkeit der eriindungsgemäßen Substanzen kann mit Hilfe des bekannten Adjuvans-Arthritis-Testes ermittelt werden, der wie folgt durchgeführt wird:
Es werden weibliche und männliche Ratten des Stammes Lewis (LEW) in der Gewichtsspanne zwischen 110 - 190 g verwendet. Die Tiere erhalten Trinkwasser und Altromin-Preßfutter ad libitum.
Für jede Dosisgruppe werden 10 Ratten eingesetzt .
Mycobacterium butyricum der Firma Difko, Detroit, wird als Reizmittel verwandt. Eine Suspension von 0,5 mg M. butyricum in 0,1 ml dünnflüssigem Paraffin. (DAB 7) wird in die rechte Hinterpfote subplantar injiziert.
Die Testsubstanzen werden vom 11. Versuchstag an täglich über 4 Tage oral gegeben. Die Substanzen werden als klare wässrige Lösung oder als Kristallsuspension unter Zusatz von Myrj 53 (85 mg.%) in isotonischer Natriumchlorid-Lösung verabreicht.
Die Ratten werden in bezug auf ihr Köpergewicht möglichst gleichmäßig in verschiedene Gruppen eingeteilt. Nach plethysmographischej Volumenmessung der rechten Hinterpfote wird in diese subplantar 0,1 ml Adjuvans injiziert. Die rechten Hinterpfoten werden vom 14. Versuchstag bis zum Versuchsende gemessen. Die Versuchsdauer beträgt 3 Wochen.
Bestimmt wird die Dosis an Testsubstanz, bei der eine 40 %ige Abheilung beobachtet wird (=ED40).

Series [2] relates to Magen. Briefly: Ulcer test (gastric ulceration). The class given is in vivo, Wistar-Eatten (SPF). From the text: Eine häufige Komplikation bei der Therapie mit nichtsteroidalen Entzündungshemmern stellt das Auftreten von Magenulcerationen dar. Diese Nebenwirkung kann im Tierversuch nachgewiesen werden, wobei als Dosis die Menge Testsubstanz verwendet wird, bei der im Adjuvans-Arthritis Test eine 40 %ige Abheilung beobachtet wird. Der Ulkus-Test wird wie folgt durchgeführt.
Es werden männliche Wistar-Eatten (SPF) verwandt. Die Tiere liege in einer Gewichtsspanne von 130 + 10 g. 16 Stunden vor Versuchsbeginn werden die Tiere vom Futter abgesetzt; sie erhalten Wasser ad libitum.
Pro Dosis werden 5 Tiere eingesetzt. Die Substanzen werden einmal oral, in Natriumelorid gelöst' oder als Kristallsuspension unter Zusatz von 85 mg% Myrj 53_appliziert.
3 Stunden nach Substanzapplikation injiziert man 1 ml einer 3 %igen Lösung des Farbstoffs Diphenylreinblau intravenös und tötet das Tier. Der Magen wird reseziert und mikroskopisch auf Anzahl von Epithclläsionen und Ulcera, die durch Farbstoffanreichcrunsen hervortreten, untersucht.

Where [3] appears, read: single oral dose equal to the ED40 of the adjuvant arthritis test, male Wistar rats, fasted 16 h, stomach examined 3 h after application.

On to `CC(C)Cc1ccc(C(C)C(=O)O)cc1` (stereo not drawn) [Verbindung 1], for which the ED40 in series [1] came to 100 mg/kg. For the same compound, the “Anzahl der Magenulzera bei gleicher Dosis” value in series [2] (rat, in vivo, po) was 6,8.

Turning to `CC(C(=O)O)c1ccc(C2CCCCC2)cc1` (stereo not drawn) [Verbindung 2, 2-(4-Cyclohexyl-phenyl)-propionsäure], in series [1], the ED40 was 40 mg/kg. The “Anzahl der Magenulzera bei gleicher Dosis” value in series [2] (rat, in vivo, po) was 7,6.

Turning to `O=C(O)C1CCc2cc(C3CCCCC3)ccc21` (stereo not drawn) [Verbindung 3, 5-Cyclohexyl-indan-1-carbonsäure], in series [1], the ED40 turned out to be 50 mg/kg. Also, the “Anzahl der Magenulzera bei gleicher Dosis” value in series [2] (rat, in vivo, po) is 8,3.

Turning to `O=C(O)C1CCc2cc(C3CCCCC3)c(Cl)cc21` (stereo not drawn) [Verbindung 4, 6-Chlor-5-cyclohexyl-indan-1-carbonsäure], the ED40 in series [1] is 4 mg/kg. Besides, the “Anzahl der Magenulzera bei gleicher Dosis” value in series [2] (rat, in vivo, po) was 7,8.

For `CC(C(=O)O)c1ccc(CC2CC2)cc1` (stereo not drawn) [Verbindung 5, 2-(4-Cyclopropylmethyl-phenyl)-propionsäure], the ED40 in series [1] is 90 mg/kg. For the same compound, in series [2] (setting [3]), the “Anzahl der Magenulzera bei gleicher Dosis” value is listed as 5,4.

In the case of `CC(C(=O)O)c1ccc(CC2CCCC2)cc1` (stereo not drawn) [Verbindung 6, 2-(4-Cyclopentylmethyl-phenyl)-propionsäure], the ED40 in series [1] worked out at 10 mg/kg. Besides, in series [2] (setting [3]), the “Anzahl der Magenulzera bei gleicher Dosis” value is given as 0,6.

Take `CC(C(=O)O)c1ccc(CC2CCCC2)c(Cl)c1` (stereo not drawn) [Verbindung 7, 2-(3-Chlor-4-cyclopentyl-methyl-phenyl)-propionsäure]: the ED40 in series [1] came to 3 mg/kg. In series [2] (setting [3]), the “Anzahl der Magenulzera bei gleicher Dosis” value was 0,6.

Regarding `O=C(O)C1CCc2cc(CC3CCCC3)c(Cl)cc21` (stereo not drawn) [Verbindung 8, 6-Chlor-5-cyclopentyl-methyl-indan-1-carbonsäure], in series [1], the ED40 worked out at 30 mg/kg. The “Anzahl der Magenulzera bei gleicher Dosis” value in series [2] (setting [3]) is given as 2,2.

For `O=C(O)C1CCc2cc(C=C3CCCC3)c(Cl)cc21` (stereo not drawn) [Verbindung 9, 6-Chlor-5-cyclopentyliden-methyl-indan-1-carbon-säure], the ED40 in series [1] is 40 mg/kg. Also, the “Anzahl der Magenulzera bei gleicher Dosis” value in series [2] (setting [3]) is 0,7.
